According to patent US8222487B2, “Application of ERF genes from Bupleurum kaoi” (National Tsing Hua University, priority 2009, dated 2012):

Legend:
Type in all cases: cell-based, Bupleurum kaoi
[1] = system: B. kaoi adventitious roots; experiment: Measurement of malondialdehyde (MDA) in adventitious roots
Experimental: (§1) To test whether MeJA caused oxidative stress, the H2O2 level was measured as described below. H2O2 was extracted by homogenizing 0.3 to 0.5 g of adventitious roots with 3 ml phosphate buffer (50 mM, pH6.8) and centrifuged at 6000×g for 25 min. A 2 ml extract was mixed with 1 ml 0.1% titanium sulfate in 20% H2SO4 (v/v), and centrifuged at 6000×g for 15 min. The optical density of the supernatant was measured at 410 nm using an equal volume of phosphate buffer as a blank. […] The MDA level was colorimetrically measured as described below. MDA was extracted by homogenizing 0.3 to 0.5 g adventitious roots with 2 ml 5% trichloroacetic acid, and centrifuged at 10,000×g for 5 min at 20° C. A mixture of 1 ml supernatant with 4 ml 0.5% thiobarbituric acid in 20% trichloroacetic acid was heated in a 95° C. water bath for 30 min and centrifuged for 10 min at 2000×g to remove haziness. Optical density of the supernatant was measured at 532 nm and 600 nm using 1 ml 5% trichloroacetic acid to replace supernatant as a blank.

[2] = system: B. kaoi adventitious roots; experiment: cDNA microarray of MeJA-responsive genes in adventitious roots; conditions: 500 μM MeJA; microarray analysis
Experimental: Adventitious root cultures were induced from the roots of germ-free seedlings of B. kaoi and were subcultured every 6 weeks by adding 0.2 g roots to a 125 ml flask containing 50 ml of B5 liquid medium supplemented with 2 mg 1^−1 NAA. Cultures were shaken using a rotary shaker at 100 rpm at 25° C. in the dark. To quantify the effect of MeJA on saikosaponin level, adventitious roots were treated with 500 and 1000 μM MeJA 2 weeks after subculture. Total saikosaponin was measured 2 weeks after MeJA treatment. To monitor expression of MeJA-responsive genes, the nutrient medium was refreshed 4 weeks after subculture and MeJA (500 μM) was applied 2 weeks after refreshment. Roots were harvested at 13 time points (5 min; 1, 2, 8, 24 hours; 2, 4, 6, 8 days; 2, 3, 4, 5 weeks) after the addition of the MeJA. […]
The DNA microarray data were imported into GeneSpring 7.2 (Silicon Genetics) for further analyses. […] The coefficient of variation was calculated by dividing the standard deviation by the mean. Net intensities of both channels were calculated by subtraction of the median fluorescent intensity of the background from the mean fluorescent intensity of each feature. […] Fold change was calculated for each gene by dividing the average intensity of MeJA-treated samples by the average intensity of the corresponding control samples. […]

[3] = system: B. kaoi adventitious roots; experiment: Fresh weight and appearance of adventitious roots after MeJA
Experimental: FIG. 1 Effect of MeJA on fresh weight and appearance of B. kaoi adventitious roots. (A) Four weeks after subculture, the nutrient medium of B. kaoi adventitious roots was refreshed. MeJA (500 μM) was applied 2 weeks after refreshment. The fresh weights of adventitious roots were measured at 13 time points after MeJA treatment as indicated. (B) Adventitious roots treated with MeJA began to show dark brownish pigmentation after 2 weeks. Each panel is a representative of the adventitious roots at the indicated time points. The left and right flasks for each sub-panel indicate the control and MeJA treated adventitious roots, respectively. (C) H2O2 level and (D) MDA level were measured at the indicated time. Vertical bars indicate S.E. of the mean for n=3.
Adventitious root cultures were induced from the roots of germ-free seedlings of B. kaoi and were subcultured every 6 weeks by adding 0.2 g roots to a 125 ml flask containing 50 ml of B5 liquid medium supplemented with 2 mg 1^−1 NAA. Cultures were shaken using a rotary shaker at 100 rpm at 25° C. in the dark. To quantify the effect of MeJA on saikosaponin level, adventitious roots were treated with 500 and 1000 μM MeJA 2 weeks after subculture. Total saikosaponin was measured 2 weeks after MeJA treatment. […]

[4] = system: B. kaoi adventitious roots; experiment: Measurement of H2O2 in adventitious roots; conditions: 500 μM MeJA; during 5 weeks culture
Experimental: as §1

For `CC/C=C\CC1C(=O)CCC1CC(=O)OC` (stereo not drawn) [MeJA, Methyl jasmonate], the “Increase in the MDA level” value ([1]; 500 μM MeJA, at 2 days) was 1.4 fold, the “Accumulation of MDA” value ([1]; all treatments during 5 weeks) was under 47 nmol/g and the “Two BkP450 genes (AM421810, AM421812) increase” value [2] was 2 fold. For the same molecule, the “Appearance of roots (pigmentation)” value ([3]; 500 μM MeJA, 2 weeks later, compared to control) was “marked pigmentation”, the “Growth of adventitious roots (fresh weight)” value ([3]; 8 days after 500 μM MeJA treatment) was “retarded” and the “H2O2 levels in the adventitious roots” value [4] was “did not significantly change”.
